Data on two molecules can be found in patent US11202792B2, “CD99 inhibitors and their uses” (GEORGETOWN UNIVERSITY, priority 2016, dated 2021).

Assay [1] deals with CD99-transfected SAOS-2 and U-2 OS cells. The assay is described as follows: Real-time proliferation (xCELLigence) of OS cells with forced CD99 expression. Conditions: dose-dependent. It counts as cell-based, human. The protocol: U-2 OS and SAOS-2 cells were transfected with pcDNA3.1 expression vector carrying the human full-length CD99 transcript variant 1 cDNA using the X-tremeGene 9 DNA transfection reagent (Roche Diagnostics) according to the manufacturer's recommendations. The expression of CD99 was assessed after 48 h by immunoblotting.
OS cells express low levels of CD99 and the forced ectopic expression of CD99 reduces their growth. To test whether cladribine can rescue the reduced proliferation phenotype induced by overexpression of CD99, U-2 OS and SAOS-2 cells were transiently transfected with a mammalian expression vector containing cDNA encoding full length human CD99. As expected, CD99-forced expression suppressed cell proliferation compared with empty-vector transfected cells, which was rescued by the addition of cladribine in a dose-dependent manner (FIGS. 7C-D and FIG. 9).

Assay [2] deals with MSK1/2 phosphorylation in STA-ET-7.2 and TC-32 cells. The assay is described as follows: MSK1/2 phosphorylation by immunoblot, ES cells. It counts as cell-based, human. Conditions: 0.6 μmol/L (STA-ET-7.2) or 0.5 μmol/L (TC-32), 24 h, vs vehicle. As to the method: (§1) In a parallel set of experiment, cells were also treated with 15 μg/mL of either mouse control IgM or CD99 blocking antibody for the same duration. Total cell lysates were analyzed by immunoblotting for MSK1/2 phosphorylation. […] In a parallel set of experiment, cells were transfected with either siRNA control or siRNA targeting the coding region of CD99 protein. Total cell lysates were analyzed after 48 h by immunoblotting for MSK1/2 phosphorylation after cell transfection. […] In FIG. 23D, SCID/beige mice were implanted with TC-71 xenografts in their tibia. […] Tumor lysates were analyzed by immunoblotting for MSK1/2 phosphorylation.
(§2) Quantitative analysis of protein bands was performed using ImageJ 1.48v software. Immunoblotting was performed as described above.

The subject of another assay is A4573 xenografts. The assay is described as follows: Orthotopic A4573 xenograft, i.p. administration. It counts as in vivo, SCID/beige mice. As to the method:
(§3) All tumor tissues were fixed in 10% neutral buffered formalin for 24 h, dehydrated through a graded series of alcohols and cleared in xylenes prior to embedding in paraffin. Embedded tissues were cut into 5 μm thick sections and stained with hematoxylin and eosin (H&E). Immunohistochemical staining was performed for CD99 and caspase 3 (cleaved). Five micron sections from formalin fixed paraffin embedded tissues were de-paraffinized with xylenes and rehydrated through a graded alcohol series. Heat induced epitope retrieval was performed by immersing the tissue sections at 98° C. for 60 min in 10 mmol/L citrate buffer (pH 6.0). Immunohistochemical staining was performed using a horseradish peroxidase labeled polymer from Agilent (Santa Clara, Calif.) (#K4001, #K4003) according to manufacturer's instructions. Briefly, slides were treated with 3% hydrogen peroxide and 10% normal goat serum for 10 min each, and exposed to primary antibodies for CD99 (Abcam, #ab8855) at a 1:100 dilution and for caspase 3 (cleaved) (Biocare (Pacheco, Calif.), #CP229A) at a 1:90 dilution in Da Vinci Green for one hour and stained on an DAKO Autostainer. Slides were exposed to the appropriate HRP labeled polymer for 30 min and DAB chromogen (Dako (Santa Clara, Calif.) for 5 min. Slides were counterstained with Hematoxylin (Fisher, Harris Modified Hematoxylin), blued in 1% ammonium hydroxide, dehydrated, and mounted with Acrymount. Consecutive sections with the primary antibody omitted were used as negative controls. The sections were evaluated in a blinded fashion by a board certified pathologist.
The antitumor activity of drugs through intraperitoneal (i.p.) administration given once daily was determined. […] The in vivo potencies of drug treatments were evaluated by event-free survival curves, where tumors that reached 1.0 cm^3 in size considered an event.

The next assay has as its system TC-71 xenografts. Nature of the assay: Orthotopic TC-71 xenograft, oral administration. Format: in vivo, SCID/beige mice. As to the method: as §3
In this study, reduction in number of mitotic figures and increase in caspase-3 staining was less prominent. […] Therefore, when the animals were euthanized for tumor regrowth they were not receiving any clofarabine. Their last dose of clofarabine was more than two week before the tissue harvest.

Assay [3] has as its system MSK1/2 phosphorylation in MG63.3 and U-2 OS cells. Nature of the assay: MSK1/2 phosphorylation by immunoblot, OS cells. Conditions: 1.0 μmol/L, 24 h. Format: cell-based, human. As to the method: as §1, §2
For a further assay, the target named is T1, CD99 protein (Homo sapiens, UniProt P14209).
T1 construct: The thermostability of endogenous CD99 protein increased in cell lysates from TC-71 cells; endogenous in cells; host or cells: TC-71 total cell lysate
The assay is described as follows: Cellular thermal shift assay (CETSA) in TC-71 cell lysates. It counts as binding. Conditions: 3.0 μmol/L, 30 min, high temperatures vs control lysates. As to the method:
The CETSA method was used according to Martinez Molina et al. (“Monitoring drug target engagement in cells and tissues using the cellular thermal shift assay,” Science 341: 84-87 (2013)) and Jafari et al. (“The cellular thermal shift assay for evaluating drug target interactions in cells,” Nat Protoc 9:2100-22 (2014)). […] The cell lysates in 60 μL volumes were individually heated in thin wall PCR tubes to the indicated temperatures for 3 min, by using Veriti 96-well Thermal Cycler (Applied Biosystems (Foster City, Calif.)). Samples were then centrifuged at 16,000×g for 30 min at 4° C. to remove insoluble proteins, and 40 ul of the resulting supernatants were transferred into new eppendorf tubes for subsequent SDS-PAGE and immunoblotting analysis.

A further assay relates to TC-CD99-shRNA #1 cells. The assay is described as follows: Soft agar colony formation assay, CD99 knockdown cells. Format: cell-based, human.
The test system of assay [4] is ES cell lines RDES and TC-71. The assay is described as follows: Secondary functional screen, growth inhibition in ES cell lines. Format: cell-based. Conditions: Homo sapiens; 10 μmol/L, 48 h, WST-1.
Assay [5] has as its system TC-32 ES cells transfected with DCK siRNA. Nature of the assay: Response to clofarabine after DCK siRNA, ES cells. It counts as cell-based, human. Conditions: TC-32, DCK siRNA.
Source text: The expression of DCK and CD99 was suppressed transiently by using a validated small interfering RNA (siRNA) duplexes targeting coding region (Invitrogen (Carlsbad, Calif.); #s186 and #s8768, respectively). Silencer™ Select Negative Control No. 2 siRNA (Invitrogen) was used as the control. Cells were transfected with DCK or CD99 or control siRNA oligonucleotides using X-tremeGene siRNA transfection reagent (Roche Diagnostics (Basel, Switzerland)) according to the manufacturer's protocol. The cells were analyzed for DCK and CD99 knockdown after 45 or 72 h by immunoblotting.
For another assay, the system named is U-2 OS cells. Nature of the assay: Secondary functional screen, negative control cell line. It counts as cell-based. Conditions: Homo sapiens, U2OS; 10 μmol/L, 48 h, WST-1; read-out: growth inhibition of OS cell lines (U-2 OS).

Structures are written as SMILES.

T1 sequence (P14209 23-185): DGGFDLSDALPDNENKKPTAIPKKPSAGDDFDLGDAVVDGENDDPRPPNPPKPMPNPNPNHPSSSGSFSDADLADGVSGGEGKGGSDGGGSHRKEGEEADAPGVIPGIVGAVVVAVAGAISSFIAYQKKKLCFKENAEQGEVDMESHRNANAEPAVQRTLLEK

Turning to `Nc1nc(Cl)nc2c1ncn2[C@H]1C[C@H](O)[C@@H](CO)O1` [cladribine], the “rescue of reduced cell proliferation induced by CD99 expression” value in assay [1] is reported as “rescued”.
Regarding `Nc1nc(Cl)nc2c1ncn2[C@@H]1O[C@H](CO)[C@@H](O)[C@@H]1F` [clofarabine], the “phosphorylation levels of MSK1/2” value in [2] is reported as “significantly elevated”; in assay [3], “Neither MG63.3 nor U2-OS cells showed a response”. Further, in the assay with A4573 xenografts (H&E, 200-fold magnification), the “mitotic figures per field” value is at most 3. For the same molecule, the apoptotic cells result is recorded as “significant increase” with A4573 xenografts (H&E, confirmed by caspase-3 immunohistochemistry) and “significant increase” in the assay with TC-71 xenografts (TC-71 xenograft harvested after 2 days of 30 mg/kg oral, H&E, caspase-3). Further, the event-free survival result with A4573 xenografts (i.p. once daily, clofarabine 30 mg/kg, vs vehicle) is reported as “significantly improved”. For the same molecule, the tumor growth result in the assay with A4573 xenografts (i.p., clofarabine 30 mg/kg) was “significant inhibition of tumor growth”; in the assay with TC-71 xenografts (TC-71 xenograft, 30 mg/kg orally once daily 14 days, compared to i.p. administration), “more significant inhibition of tumor growth”. The mitotic figures entry in the assay on TC-71 xenografts (TC-71 xenograft harvested after 2 days of 30 mg/kg oral) is on record as “complete loss”. Also, in the assay on TC-71 xenografts (TC-71 xenograft, oral 30 mg/kg for two days, three out of four mice), the “phosphorylation levels of MSK1/2 in tumors” value is “significant increase”. The molecule also returned a median event-free survival in the assay on TC-71 xenografts (TC-71 xenograft, 30 mg/kg orally once daily for 14 days, vehicle 7 days, p<0.0001) of 33 days. The “thermostability of endogenous CD99 protein” value on CD99 protein is recorded as “increased”. Moreover, the “colony formation in CD99 knockdown cells” value with TC-CD99-shRNA #1 cells is “did not result in further decrease”. For the same molecule, the inhibition at 10 µM is at least 70% in assay [4] and at most 10% in the assay with U-2 OS cells. Also, in assay [5], the “response after inhibiting DCK protein expression” value is “shift to the right of the IC50 curve”.
